Some results are limits rather than exact numbers.

One assay relates to amyloid β production in transfected H4 (human neuroglioma) cells stably expressing APP constructs. The assay is described as follows: In vitro cell-based assay of inhibitors of amyloid β production (ELISA). To be noted: Homo sapiens, 16 h, transfected H4 cells expressing APP, approximately 16 hours incubation, amyloid β in medium by ELISA; read-out: ACTIVITY (IC50, inhibition of amyloid β production). An outline of the steps:
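Plate wt/variant APP cells; ≥6 h later swap to medium + compound (10-100 μM screen); incubate ~16 h; sample medium; Aβ ELISA with C-terminal capture / N-terminal detection Abs; quantify vs Aβ standard curve.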
By IC50 is commonly meant the midpoint of a concentration-inhibition curve. For the compound `C[C@H](C(=O)NC[C@]12CC3C[C@H](C[C@H](C3)C1)C2)N(c1cc(Cl)ccc1F)S(=O)(=O)c1ccc(Cl)cc1` [Example 1306], the IC50 is more than 500 nM. `C[C@H](C(=O)NCc1ccccn1)N(c1cc(Cl)ccc1F)S(=O)(=O)c1ccc(Cl)cc1` [Example 1341]: the IC50 lay in the range of 100 to 500 nM.

Still in this assay, the particulars now being: Homo sapiens, 16 h, transfected H4 cells stably expressing APP; approximately 16 hours incubation; amyloid β in medium by ELISA; read-out: ACTIVITY (IC50, inhibition of amyloid β production).
As for `O=S(=O)(c1ccc(Cl)cc1)N(Cc1ccccc1CCCCO)c1ccccc1` [Example 1016, 4-chloro-N-[2-(4-hydroxybutyl)benzyl]-N-phenylbenzenesulfonamide], the IC50 was more than 500 nM.

`O=S(=O)(c1ccccc1)N(Cc1ccccc1CCCCN1CCCCC1)c1ccccc1` [Example 1005, N-phenyl-N-{2-[4-(1-piperidinyl)butyl]benzyl}benzenesulfonamide]: the IC50 was more than 500 nM.

Turning to `O=S(=O)(c1ccc(Cl)cc1)N(CCc1ccccc1O)c1ccccc1` [Example 1015, 4-chloro-N-[2-(2-hydroxyphenyl)ethyl]-N-phenylbenzenesulfonamide], the IC50 was more than 500 nM.

The same assay, now with this note: transfected H4 cells stably expressing APP constructs; approximately 16 hours incubation; amyloid β in medium by ELISA; read-out: ACTIVITY (IC50, inhibition of amyloid β production).
Turning to `C[C@H](CCCS(C)(=O)=O)N(c1cc(Cl)ccc1CO)S(=O)(=O)c1ccc(S(C)(=O)=O)cc1` [Example 1230], the IC50 is 25 to 50 nM. With `CCSCCC[C@@H](C)N(c1cc(F)ccc1F)S(=O)(=O)c1ccc(Cl)cc1` [Example 1177, 4-chloro-N-[2,5-difluorophenyl]-N-[1(R)-methyl-(4-ethylthio)butyl]benzenesulfonamide], the IC50 is not above 25 nM. On to `CC1CS(=O)(=O)CCN1CCCCC[C@@H](C)N(c1cc(Cl)ccc1F)S(=O)(=O)c1ccc(Cl)cc1` (stereo partly shown) [Example 1275], for which the IC50 is not above 25 nM. On the same count and under the same terms, for `CC([C@@H]1CCCN1)N(c1cc(Cl)ccc1Cl)S(=O)(=O)c1ccc(Cl)cc1` (stereo partly shown) [Example 1254] the value was more than 500 nM; for `CC(C)S(=O)(=O)CCC[C@@H](C)N(c1cc(Cl)ccc1Cl)S(=O)(=O)c1ccc(Cl)cc1` [Example 1161], not above 25 nM; for `CSC1CCCN(CC[C@@H](C)N(c2cc(Cl)ccc2Cl)S(=O)(=O)c2ccc(Cl)cc2)C1` (stereo partly shown) [Example 1159], more than 500 nM.

Staying with this assay, now noted: transfected H4 cells stably expressing APP; approx. 16 h incubation; amyloid β in medium by ELISA; read-out: ACTIVITY (IC50, inhibition of amyloid β production).
For the compound `CC(C)[C@H](NC(=O)CCCC[C@@H](C)N(c1cc(Cl)ccc1F)S(=O)(=O)c1ccc(Cl)cc1)C(=O)O` [Example 547, (R)-4-Chloro-N-(5-chloro-2-fluorophenyl)-N-[6-[N-(S)-[1-(carboxy)-2-methylpropyl]amino]-1-methyl-6-oxohexyl]benzenesulfonamide], the IC50 lay in the range of 100 to 500 nM. For the compound “2-((1R)-1-{[(4-chlorophenyl)sulfonyl]-2,5-difluoroanilino}ethyl)-5-fluorobenzyl 3-fluorobenzylcarbamate [Example 764]”, the IC50 is 100 to 500 nM.

With “2-chloro-N-{3-[2-(1-{[(4-chlorophenyl)sulfonyl]-2,5-difluoroanilino}methyl)phenoxy]propyl}-N-methylbenzamide [Example 774]”, the IC50 lay within 100 to 500 nM. On the same count and under the same terms, for “3-[2-((1R)-1-{[(4-chlorophenyl)sulfonyl]-2,5-difluoroanilino}ethyl)phenyl]propyl benzyl(methyl)carbamate [Example 763]” the value was 100 to 500 nM.

“N-{3-[2-({[(4-chlorophenyl)sulfonyl]-2,5-difluoroanilino}methyl)phenoxy]propyl}-4-fluoro-N-methylbenzamide [Example 747]”: the IC50 fell in the range of 100 to 500 nM. The same measure, in the same setting: with “N-{2-[2-(1-{[(4-chlorophenyl)sulfonyl]-2,5-difluoroanilino}ethyl)phenoxy}ethyl}-N-ethyl-3-methyl-2-butenamide [Example 642]” the figure was 100 to 500 nM.

The assay is the same for the next values; noted with them: transfected H4 cells stably expressing APP; approximately 16 hours incubation; amyloid β in medium by ELISA; read-out: ACTIVITY (IC50, inhibition of amyloid β production).
On to “2-((1R)-1-{[(4-chlorophenyl)sulfonyl]-2,5-difluoroanilino}ethyl)benzyl benzylcarbamate [Example 825]”, for which the IC50 lay in the range of 100 to 500 nM. On the same count and under the same terms, for “3-((4R)-4-{[(4-chlorophenyl)sulfonyl]-2,5-difluoroanilino}-7-fluoro-1,2,3,4-tetrahydro-1-naphthalenyl)propanoic acid [Example 1007]” the value was more than 500 nM.

The values are drawn from US6967196B1, “Sulfonamide compounds and uses thereof” (Bristol-Myers Squibb Company, priority 1999, dated 2005).
